Experimental data reported in ChEMBL document CHEMBL1201862, “PubChem BioAssay data set” (2004).
Calls of active or inactive are those of the source.

Columns and labels:
[1] = biological target: T1, Microphthalmia-associated transcription factor (Homo sapiens, UniProt O75030); test: TRPM1 promoter luciferase signal decrease, dose response, MITF inhibitor project, cell-based, SK-MEL-5, cherry-picked, set 3 (AID 493073); type: functional
T1 sequence (O75030 whole entry): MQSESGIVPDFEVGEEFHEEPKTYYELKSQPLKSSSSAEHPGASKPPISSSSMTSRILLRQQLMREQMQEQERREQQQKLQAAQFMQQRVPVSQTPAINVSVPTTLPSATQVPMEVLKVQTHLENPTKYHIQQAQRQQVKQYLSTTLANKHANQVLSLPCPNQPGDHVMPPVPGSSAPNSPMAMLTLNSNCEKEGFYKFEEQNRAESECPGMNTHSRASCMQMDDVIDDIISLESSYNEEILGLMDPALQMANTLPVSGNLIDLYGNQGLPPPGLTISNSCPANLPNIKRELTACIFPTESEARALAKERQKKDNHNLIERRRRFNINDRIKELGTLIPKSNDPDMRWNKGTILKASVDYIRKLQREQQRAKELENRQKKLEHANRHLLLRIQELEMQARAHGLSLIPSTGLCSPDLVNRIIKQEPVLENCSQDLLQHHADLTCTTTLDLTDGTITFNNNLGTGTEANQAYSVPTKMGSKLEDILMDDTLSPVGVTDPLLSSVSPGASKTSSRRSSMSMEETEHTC

[2] = HEp-2 cell cytotoxicity, dose response, cytotoxicity control for RSV inhibitor project, HTS (AID 2410); type: functional; conditions: human respiratory syncytial virus
[3] = inhibitors of clade B AD8 Env fusion, dose response, cell-based, cherry-pick (AID 652062); type: functional;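 further: luciferase signal from cell-cell fusion driven by HIV-1 clade B AD8 Env; potency is for inhibitors of fusion seen as a drop in luminescence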
[4] = ZM109 Env clade C HIV-1 fusion inhibitors, dose response, HeLa effector, CEM target cells, luciferase, cherry-pick (AID 652058); type: functional, cell-based
[5] = CEM21 lymphoblast cell cytotoxicity, dose response, cytotoxicity control for viral fusion inhibitor project, CellTiter-Glo luminescence, cherry-picked (AID 652042); type: functional, cell-based;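 further: potency for signal decrease meaning cytotoxicity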
[6] = inhibitors of HIV Env-driven cell fusion, dose response, cherry-pick (AID 652057); type: functional, cell-based
[7] = off-target signal loss in HeLa-CEM21 co-culture – HeLa F-luc CTL cells, cherry-picked, counter-screen for HIV-1 Env fusion inhibitor project, dose response (AID 652040); type: functional, cell-based;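 further: potency for signal decrease marking cytotoxic or nonspecific inhibition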
[8] = biological target: Glucose-6-phosphate 1-dehydrogenase (Homo sapiens, UniProt P11413); test: human G6PD enzyme inhibitors, dose response, selectivity assay for P. falciparum G6PD inhibitor project, biochemical, fluorescence (AID 504792); type: functional
[9] = test system: Vero; test: cells; type: functional; conditions: Chlorocebus sabaeus
[10] = biological target: T2, Long-chain-fatty-acid--AMP ligase FadD28 (Mycobacterium tuberculosis, UniProt P9WQ59); test: Fluorescence polarization aasay to screen for inhibitors that compete for the binding of FadD28 to a bisubstrate Measured in Biochemical System Using Plate Reader - 2147-01_Inhibitor_Dose_CherryPick_Activity.; type: functional, Mycobacterium tuberculosis H37Rv
T2 sequence (P9WQ59 whole entry): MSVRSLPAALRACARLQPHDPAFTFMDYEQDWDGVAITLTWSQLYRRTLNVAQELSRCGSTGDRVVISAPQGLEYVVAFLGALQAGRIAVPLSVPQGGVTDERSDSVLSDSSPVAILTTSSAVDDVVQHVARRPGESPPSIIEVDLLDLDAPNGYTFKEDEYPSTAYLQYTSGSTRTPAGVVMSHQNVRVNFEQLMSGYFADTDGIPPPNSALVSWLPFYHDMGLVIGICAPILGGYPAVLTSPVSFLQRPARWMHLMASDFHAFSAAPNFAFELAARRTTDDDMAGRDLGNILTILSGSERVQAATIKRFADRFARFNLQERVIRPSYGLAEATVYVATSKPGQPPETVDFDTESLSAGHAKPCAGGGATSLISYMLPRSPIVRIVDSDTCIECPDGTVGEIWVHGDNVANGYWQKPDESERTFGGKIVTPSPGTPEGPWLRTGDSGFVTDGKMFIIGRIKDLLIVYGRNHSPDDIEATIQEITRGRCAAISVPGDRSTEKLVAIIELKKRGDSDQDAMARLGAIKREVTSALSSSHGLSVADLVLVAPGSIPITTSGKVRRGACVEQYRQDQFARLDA

[11] = Luminescence-based counterscreen assay for KLF5 inhibitors: dose response cell-based high throughput screening assay to identify cytotoxic compounds using the IEC-6 intestinal epithelial cell line. [Related pubchem assays: 1700 (Primary screen.), 1834 (Confirmation screen.), 1858 (Summary AID.), 1905 (Counterscreen.)]; type: functional
[12] = biological target: T3, Bcl-2-like protein 10 (Homo sapiens, UniProt Q9HD36); test: Biochemical TR3 FP assay of Bcl-B inhibitor potency, EC50 (AID 1243); type: functional
T3 sequence (Q9HD36 whole entry): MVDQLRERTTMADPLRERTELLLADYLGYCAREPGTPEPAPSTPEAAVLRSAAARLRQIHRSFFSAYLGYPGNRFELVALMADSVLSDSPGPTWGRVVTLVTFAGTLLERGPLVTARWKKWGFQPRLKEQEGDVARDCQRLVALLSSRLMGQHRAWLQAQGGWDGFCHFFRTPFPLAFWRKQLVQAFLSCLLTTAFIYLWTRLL

Glucose-6-phosphate 1-dehydrogenase, sequence (P11413 whole entry): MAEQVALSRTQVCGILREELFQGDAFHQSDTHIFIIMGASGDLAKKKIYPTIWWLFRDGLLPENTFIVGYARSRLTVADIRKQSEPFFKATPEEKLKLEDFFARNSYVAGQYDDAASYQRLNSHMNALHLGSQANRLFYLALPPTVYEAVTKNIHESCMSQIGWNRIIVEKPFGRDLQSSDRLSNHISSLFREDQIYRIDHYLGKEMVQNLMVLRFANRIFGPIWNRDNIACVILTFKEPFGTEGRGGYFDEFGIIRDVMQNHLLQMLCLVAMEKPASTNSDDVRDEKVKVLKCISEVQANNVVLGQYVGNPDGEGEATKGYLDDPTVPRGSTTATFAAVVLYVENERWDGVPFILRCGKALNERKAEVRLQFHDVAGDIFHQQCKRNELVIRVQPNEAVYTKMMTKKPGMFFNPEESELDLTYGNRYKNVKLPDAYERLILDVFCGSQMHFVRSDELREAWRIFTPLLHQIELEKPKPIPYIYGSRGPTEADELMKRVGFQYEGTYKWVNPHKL

| SMILES | AC50 [1] | CC50 [2] | AC50 [3] | AC50 [4] | AC50 [5] | AC50 [6] | AC50 [7] | IC50 [8] | CC50 [9] | AC50 [10] | IC50 [11] | EC50 [12] |
| --- | --- | --- | --- | --- | --- | --- | --- | --- | --- | --- | --- | --- |
| CC(C)(C)c1ccc(C(=O)Nc2sc3c(c2C(=O)O)CCC3)cc1 | 2.09 µM (active) | 6.97 µM (active) | 0.786 µM (active) | 1.36 µM (active) | 66.1 µM (active) | 2.21 µM (active) | 4.43 µM (active) | > 80 µM (inactive) | > 25 µM (active) | > 100 µM (inactive) | > 39.8 µM (not active) | – |
| Cc1ccc(C)n1-c1ccccc1C(=O)O | – | – | – | – | – | – | – | – | – | – | – | 0.62 µM (active) |
